Test results reported in paper PMC9090415, “Discovery of small molecule inhibitors of Plasmodium falciparum apicoplast DNA polymerase” (Journal of Enzyme Inhibition and Medicinal Chemistry, 2022).

Molecular target: P. falciparum apicoplast DNA polymerase (Pf-apPOL) (Plasmodium falciparum, UniProt Q8ILY1)
Assay: Fluorescence-based high-throughput DNA polymerase assay (molecular beacon), primary screen and dose-response
Type: biochemical
How it was run: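 Single-point screening used 10 µM compound with 20 nM polymerase, 20 nM hairpin substrate and 6 µM dNTPs for 90 min at 25 °C. Confirmatory titrations (2.5–80 µM) followed fluorescence at three times, and IC50 was derived from a fit including a cooperativity term n.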

[1] = DRC-2, 40', concentration 80 (unit not given)
[2] = DRC-2, 90', concentration 10 (unit not given)
[3] = DRC-2, 90', concentration 40 (unit not given)
[4] = primary screen value of the 186 hits; unit not given; 90 min, 10 µM
[5] = primary screen value, head "DNA Pol", unit not given; 90 min, 10 µM

P. falciparum apicoplast DNA polymerase (Pf-apPOL), sequence (Q8ILY1 entry or part of it): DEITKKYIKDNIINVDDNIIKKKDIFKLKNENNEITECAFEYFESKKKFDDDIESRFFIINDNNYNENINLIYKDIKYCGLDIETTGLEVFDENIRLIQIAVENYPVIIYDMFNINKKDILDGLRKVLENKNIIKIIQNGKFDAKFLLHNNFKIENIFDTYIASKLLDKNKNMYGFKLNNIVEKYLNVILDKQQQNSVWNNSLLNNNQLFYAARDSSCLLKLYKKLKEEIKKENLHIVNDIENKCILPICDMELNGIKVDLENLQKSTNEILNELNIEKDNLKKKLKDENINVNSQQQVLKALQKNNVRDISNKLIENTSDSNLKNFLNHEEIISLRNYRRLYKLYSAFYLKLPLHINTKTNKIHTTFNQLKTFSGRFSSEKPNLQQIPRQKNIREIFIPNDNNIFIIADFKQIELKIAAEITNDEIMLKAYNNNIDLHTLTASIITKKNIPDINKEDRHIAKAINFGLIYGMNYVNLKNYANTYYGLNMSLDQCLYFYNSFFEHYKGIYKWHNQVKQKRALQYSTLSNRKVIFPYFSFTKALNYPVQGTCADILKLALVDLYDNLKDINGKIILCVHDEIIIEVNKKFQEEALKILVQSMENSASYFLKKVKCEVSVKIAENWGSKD

Cc1cc(C)c2c(O)nc(SCC(=O)c3ccc(O)c(O)c3)nc2n1 [Molecule 88, Cc1cc(C)c2c(n1)nc(nc2O)SCC(=O)c1ccc(c(c1)O)O]
% inhibition Apo pol 10' (DRC-1; 10'; concentration 2.5): 66.1048% | % inhibition Apo pol 10' (DRC-1; 10'; concentration 5): 84.19% | % inhibition Apo pol 10' (DRC-1; 10'; concentration 10): 90.4679% | % inhibition Apo pol 10' (DRC-1; 10'; concentration 20): 96.9488% | % inhibition Apo pol 10' (DRC-1; 10'; concentration 40): 98.8856% | % inhibition Apo pol 10' (DRC-1; 10'; concentration 80): 98.1462% | % inhibition Apol 90' (DRC-1; 90'; concentration 2.5): 42.8406% | % inhibition Apol 90' (DRC-1; 90'; concentration 5): 64.0677% | % inhibition Apol 90' (DRC-1; 90'; concentration 10): 76.3822% | % inhibition Apol 90' (DRC-1; 90'; concentration 20): 90.5503% | % inhibition Apol 90' (DRC-1; 90'; concentration 40): 93.4235% | % inhibition Apol 90' (DRC-1; 90'; concentration 80): 90.6466% | % inhibition apPOL 180' (DRC-1; 180'; concentration 2.5): 28.0012% | % inhibition apPOL 180' (DRC-1; 180'; concentration 5): 48.1017% | % inhibition apPOL 180' (DRC-1; 180'; concentration 10): 62.9235% | % inhibition apPOL 180' (DRC-1; 180'; concentration 20): 84.8942% | % inhibition apPOL 180' (DRC-1; 180'; concentration 40): 86.2556% | % inhibition apPOL 180' (DRC-1; 180'; concentration 80): 82.2791% | % inhibition Apol 40' (DRC-2, 40', concentration 10 (unit not given)): 63% | % inhibition Apol 40' (DRC-2, 40', concentration 20 (unit not given)): 71% | % inhibition Apol 40' [1]: 54% | % inhibition ApPOL 90' [2]: 63% | % inhibition ApPOL 90' (DRC-2, 90', concentration 20 (unit not given)): 71% | % inhibition ApPOL 90' [3]: 71% | % inhibition apPOL 180' (DRC-2, 180', concentration 10 (unit not given)): 54% | % inhibition apPOL 180' (DRC-2, 180', concentration 20 (unit not given)): 63% | % inhibition apPOL 180' (DRC-2, 180', concentration 40 (unit not given)): 63% | % inhibition Apo pol 5' (DRC-2; 5'; concentration 2.5): 35% | % inhibition Apo pol 5' (DRC-2; 5'; concentration 5): 43% | % inhibition Apo pol 5' (DRC-2; 5'; concentration 10): 50% | % inhibition Apo pol 5' (DRC-2; 5'; concentration 20): 55% | % inhibition Apo pol 5' (DRC-2; 5'; concentration 40): 58% | % inhibition Apo pol 5' (DRC-2; 5'; concentration 80): 31% | % inhibition Apol 40' (DRC-2; 40'; concentration 2.5): 32% | % inhibition Apol 40' (DRC-2; 40'; concentration 5): 45% | % inhibition Apol 40' (DRC-2; 40'; concentration 10): 63% | % inhibition Apol 40' (DRC-2; 40'; concentration 20): 71% | % inhibition Apol 40' (DRC-2; 40'; concentration 40): 72% | % inhibition Apol 40' (DRC-2; 40'; concentration 80): 54% | % inhibition ApPOL 90' (DRC-2; 90'; concentration 2.5): 28% | % inhibition ApPOL 90' (DRC-2; 90'; concentration 5): 42% | % inhibition ApPOL 90' (DRC-2; 90'; concentration 10): 63% | % inhibition ApPOL 90' (DRC-2; 90'; concentration 20): 71% | % inhibition ApPOL 90' (DRC-2; 90'; concentration 40): 71% | % inhibition ApPOL 90' (DRC-2; 90'; concentration 80): 56% | % inhibition apPOL 180' (DRC-2; 180'; concentration 2.5): 18% | % inhibition apPOL 180' (DRC-2; 180'; concentration 5): 27% | % inhibition apPOL 180' (DRC-2; 180'; concentration 10): 54% | % inhibition apPOL 180' (DRC-2; 180'; concentration 20): 63% | % inhibition apPOL 180' (DRC-2; 180'; concentration 40): 63% | % inhibition apPOL 180' (DRC-2; 180'; concentration 80): 53% | DNA Pol [4]: 85 | DNA Pol [5]: 85

CN(C)C=CC(=O)c1ccccn1 [Molecule 64, CN(C=CC(=O)c1ccccn1)C]
DNA Pol ('DNA Pol'; screening value, unit not given; 90 min, 10 µM): 79 | % inhibition Apo pol 10' (DRC-1; 10'; concentration 2.5): 5.279% | % inhibition Apo pol 10' (DRC-1; 10'; concentration 5): 16.5803% | % inhibition Apo pol 10' (DRC-1; 10'; concentration 10): 34.5693% | % inhibition Apo pol 10' (DRC-1; 10'; concentration 20): 50.9232% | % inhibition Apo pol 10' (DRC-1; 10'; concentration 40): 69.0219% | % inhibition Apo pol 10' (DRC-1; 10'; concentration 80): 79.1475% | % inhibition Apol 90' (DRC-1; 90'; concentration 2.5): 1.734% | % inhibition Apol 90' (DRC-1; 90'; concentration 5): 6.501% | % inhibition Apol 90' (DRC-1; 90'; concentration 10): 20.4436% | % inhibition Apol 90' (DRC-1; 90'; concentration 20): 33.6237% | % inhibition Apol 90' (DRC-1; 90'; concentration 40): 52.2034% | % inhibition Apol 90' (DRC-1; 90'; concentration 80): 65.606% | % inhibition apPOL 180' (DRC-1; 180'; concentration 2.5): -0.4261% | % inhibition apPOL 180' (DRC-1; 180'; concentration 5): -0.5089% | % inhibition apPOL 180' (DRC-1; 180'; concentration 10): 10.9691% | % inhibition apPOL 180' (DRC-1; 180'; concentration 20): 21.4909% | % inhibition apPOL 180' (DRC-1; 180'; concentration 40): 39.455% | % inhibition apPOL 180' (DRC-1; 180'; concentration 80): 54.1589% | % inhibition Apo pol 5' (DRC-2, 5', concentration 2.5): 10% | % inhibition Apo pol 5' (DRC-2, 5', concentration 5): 18% | % inhibition Apo pol 5' (DRC-2, 5', concentration 10): 34% | % inhibition Apo pol 5' (DRC-2, 5', concentration 20): 44% | % inhibition Apo pol 5' (DRC-2, 5', concentration 40): 50% | % inhibition Apo pol 5' (DRC-2, 5', concentration 80): 54% | % inhibition Apol 40' (DRC-2, 40', concentration 2.5): 6% | % inhibition Apol 40' (DRC-2, 40', concentration 5): 12% | % inhibition Apol 40' (DRC-2, 40', concentration 10): 27% | % inhibition Apol 40' (DRC-2, 40', concentration 20): 41% | % inhibition Apol 40' (DRC-2, 40', concentration 40): 53% | % inhibition Apol 40' (DRC-2, 40', concentration 80): 64% | % inhibition ApPOL 90' (DRC-2, 90', concentration 2.5): 0.656% | % inhibition ApPOL 90' (DRC-2, 90', concentration 5): 7% | % inhibition ApPOL 90' (DRC-2, 90', concentration 10): 21% | % inhibition ApPOL 90' (DRC-2, 90', concentration 20): 36% | % inhibition ApPOL 90' (DRC-2, 90', concentration 40): 50% | % inhibition ApPOL 90' (DRC-2, 90', concentration 80): 65% | % inhibition apPOL 180' (DRC-2, 180', concentration 2.5): -5% | % inhibition apPOL 180' (DRC-2, 180', concentration 5): -1.23% | % inhibition apPOL 180' (DRC-2, 180', concentration 10): 9% | % inhibition apPOL 180' (DRC-2, 180', concentration 20): 23% | % inhibition apPOL 180' (DRC-2, 180', concentration 40): 42% | % inhibition apPOL 180' (DRC-2, 180', concentration 80): 63% | % inhibition Apo pol 5' (conc 40 (unit not given); 5'; DRC-2): 50% | % inhibition ApPOL 90' (conc 40 (unit not given); 90'; DRC-2): 50% | DNA Pol (primary screen hit value, DNA Pol (186 hits); 90 min, 10 µM): 79

O=C(Nc1nnc(-c2cccs2)o1)c1ccc([N+](=O)[O-])o1 [Molecule 74]
IC50 (supplemental file 2, sheet IC50 nontoxic compounds; Pf-apPOL): 30.8 µM

CCOc1cccc2cc(C(=O)Nc3nnc(-c4ccno4)o3)oc12 [Molecule 28, CCOc1cccc2c1oc(c2)C(=O)Nc1nnc(o1)c1ccno1]
% inhibition Apo pol 10' (DRC-1; 10'; concentration 2.5): 10.6274% | % inhibition Apo pol 10' (DRC-1; 10'; concentration 5): 33.541% | % inhibition Apo pol 10' (DRC-1; 10'; concentration 10): 66.1299% | % inhibition Apo pol 10' (DRC-1; 10'; concentration 20): 85.0301% | % inhibition Apo pol 10' (DRC-1; 10'; concentration 40): 91.7568% | % inhibition Apo pol 10' (DRC-1; 10'; concentration 80): 93.7028% | % inhibition Apol 90' (DRC-1; 90'; concentration 2.5): 2.531% | % inhibition Apol 90' (DRC-1; 90'; concentration 5): 15.4654% | % inhibition Apol 90' (DRC-1; 90'; concentration 10): 41.5074% | % inhibition Apol 90' (DRC-1; 90'; concentration 20): 63.6828% | % inhibition Apol 90' (DRC-1; 90'; concentration 40): 78.9695% | % inhibition Apol 90' (DRC-1; 90'; concentration 80): 87.3573% | % inhibition apPOL 180' (DRC-1; 180'; concentration 2.5): -1.99% | % inhibition apPOL 180' (DRC-1; 180'; concentration 5): 5.082% | % inhibition apPOL 180' (DRC-1; 180'; concentration 10): 24.8097% | % inhibition apPOL 180' (DRC-1; 180'; concentration 20): 44.8371% | % inhibition apPOL 180' (DRC-1; 180'; concentration 40): 65.9166% | % inhibition apPOL 180' (DRC-1; 180'; concentration 80): 81.0763% | % inhibition Apo pol 5' (DRC-2, 5', concentration 20 (unit not given)): 45% | % inhibition Apo pol 5' (DRC-2, 5', concentration 40 (unit not given)): 45% | % inhibition Apol 40' [1]: 66% | % inhibition ApPOL 90' [2]: 45% | % inhibition ApPOL 90' [3]: 66% | % inhibition Apo pol 5' (DRC-2; 5'; concentration 2.5): 16% | % inhibition Apo pol 5' (DRC-2; 5'; concentration 5): 28% | % inhibition Apo pol 5' (DRC-2; 5'; concentration 10): 46% | % inhibition Apo pol 5' (DRC-2; 5'; concentration 20): 45% | % inhibition Apo pol 5' (DRC-2; 5'; concentration 40): 45% | % inhibition Apo pol 5' (DRC-2; 5'; concentration 80): 39% | % inhibition Apol 40' (DRC-2; 40'; concentration 2.5): 14% | % inhibition Apol 40' (DRC-2; 40'; concentration 5): 24% | % inhibition Apol 40' (DRC-2; 40'; concentration 10): 50% | % inhibition Apol 40' (DRC-2; 40'; concentration 20): 57% | % inhibition Apol 40' (DRC-2; 40'; concentration 40): 64% | % inhibition Apol 40' (DRC-2; 40'; concentration 80): 66% | % inhibition ApPOL 90' (DRC-2; 90'; concentration 2.5): 11% | % inhibition ApPOL 90' (DRC-2; 90'; concentration 5): 20% | % inhibition ApPOL 90' (DRC-2; 90'; concentration 10): 45% | % inhibition ApPOL 90' (DRC-2; 90'; concentration 20): 56% | % inhibition ApPOL 90' (DRC-2; 90'; concentration 40): 66% | % inhibition ApPOL 90' (DRC-2; 90'; concentration 80): 70% | % inhibition apPOL 180' (DRC-2; 180'; concentration 2.5): 2% | % inhibition apPOL 180' (DRC-2; 180'; concentration 5): 5% | % inhibition apPOL 180' (DRC-2; 180'; concentration 10): 29% | % inhibition apPOL 180' (DRC-2; 180'; concentration 20): 44% | % inhibition apPOL 180' (DRC-2; 180'; concentration 40): 61% | % inhibition apPOL 180' (DRC-2; 180'; concentration 80): 72% | DNA Pol [4]: 79 | DNA Pol [5]: 79
